Laboratory results published in patent US20220079913A1, “DIHYDROMYRICETIN WITH ANTI-ALCOHOLIC EFFECT” (Shanghai Spark Pharmaceutical Co., Ltd., priority 2020, published 2022).

Experiments:
[1] = Acute toxicity of dihydromyricetin, single oral gavage; format: in vivo, mice; settings: ICR, mouse, in vivo, po
Experimental: (§1) Observation of the Acute Toxicity of Dihydromyricetin on ICR Mice
(§2) Preparation of test substance: weighing the test substance of the required quality; adding sterile water for injection to prepare it to the required concentration; mixing well before administration.
(§3) Animal breeds and strains: ICR mice
(§4) After the adaptation period, 30 experimental animals were divided into 3 groups, half male and […]. After fasting for 12 hours, according to the body weight, the control reagents or the test substance were administered orally respectively. The animal's clinical symptoms after administration are observed, with abnormal records. The animals were weighed before the administration and on the 1, 3, 5, and 7 days after the administration. At the end of the experiment, the animals were euthanized by inhalation of excessive CO2

ICR mice [2] = assay: as above; format: in vivo
Experimental: as §1, §2, §3, §4

ICR mice [3] = assay: Anti-alcoholic (hangover) test; format: in vivo; settings: for Number of deaths / Number of drunks: 20 animals; for Number of deaths / Number of drunks / Drunkenness rate / Mortality rate: after 10 hours of drinking
Experimental: as §2, §3
60 experimental animals were divided into 3 groups, half male and […]. After fasting for 12 hours, according to the body weight, the control reagents the test substance were administered orally respectively.

[4] = cited from earlier work

## O=C1c2c(O)cc(O)cc2OC(c2cc(O)c(O)c(O)c2)C1O [Dihydromyricetin, (2R,3R)-3,5,7-trihydroxy-2-(3,4,5-trihydroxyphenyl) benzodihydropyran-4-one]
[1]
  MTD at 7 days: 5000 mg/kg
ICR mice [2]; 3500 mg/kg i.g. once, day 0
  Mortality rate: 0%
ICR mice [2]; 3500 mg/kg i.g. once, day 1
  Mortality rate: 0%
ICR mice [2]; 3500 mg/kg i.g. once, day 2
  Mortality rate: 0%
ICR mice [2]; 3500 mg/kg i.g. once, day 3
  Mortality rate: 0%
ICR mice [2]; 3500 mg/kg i.g. once, day 4
  Mortality rate: 0%
ICR mice [2]; 3500 mg/kg i.g. once, day 5
  Mortality rate: 0%
ICR mice [2]; 3500 mg/kg i.g. once, day 6
  Mortality rate: 0%
ICR mice [2]; 3500 mg/kg i.g. once, day 7
  Mortality rate: 0%
ICR mice [2]; 5000 mg/kg i.g. once, day 0
  Mortality rate: 0%
ICR mice [2]; 5000 mg/kg i.g. once, day 1
  Mortality rate: 0%
ICR mice [2]; 5000 mg/kg i.g. once, day 2
  Mortality rate: 0%
ICR mice [2]; 5000 mg/kg i.g. once, day 3
  Mortality rate: 0%
ICR mice [2]; 5000 mg/kg i.g. once, day 4
  Mortality rate: 0%
ICR mice [2]; 5000 mg/kg i.g. once, day 5
  Mortality rate: 0%
ICR mice [2]; 5000 mg/kg i.g. once, day 6
  Mortality rate: 0%
ICR mice [2]; 5000 mg/kg i.g. once, day 7
  Mortality rate: 0%
ICR mice [2]; 3500 and 5000 mg/kg, single oral administration
  mortality rate during the test period: 0
ICR mice [3]; 350 mg/kg i.g. once
  Sobering time: 376.35 min
  Tolerance time: 77.40 min
  Number of deaths: 0
  Number of drunks: 19
  Drunkenness rate: 95%
  Mortality rate: 0%
ICR mice [3]; 1050 mg/kg i.g. once
  Sobering time: 214.32 min
  Tolerance time: 193.00 min
  Number of deaths: 1
  Number of drunks: 14
  Drunkenness rate: 70%
  Mortality rate: 5%
ICR mice [3]; 1050 mg/kg i.g. once, listed as dihydromyricetin
  Sobering time: 214 min
ICR mice [3]; 1050 mg/kg, control group 324 min, statistically different
  sobering time compared with the control group: significantly lower
[4]; chloroform and petroleum ether
  solubility in chloroform and petroleum ether: hardly soluble
[4]; ethyl acetate
  solubility in ethyl acetate: very slightly soluble
[4]; methanol, ethanol and acetone
  solubility in methanol, ethanol and acetone: easily soluble
[4]; room temperature and cold water
  solubility in water: Low solubility
